Measured values from US7632524B2, “Pharmaceutical preparations for the treatment of itch, nausea, hyperalgesia and the complications of opioid agonists” (priority 2002, dated 2009).

Tests used:
Format in all cases: in vivo
opioid-induced emesis = test: Ferret model of opioid (morphine-6-glucuronide)-induced emesis
Method: FIG. 1. Prevention of opioid-induced emesis by the Croton speceis extract, (Zangrado®). Emesis as measured by the number of vomiting and retching episodes per hour was induced by parenteral administration of the opioid narcotic, morphine-6-glucuronide (15 mg/kg) ip.
Sangre de Grado has also been used ethnomedically for the treatment of a variety of intestinal complications including diarrhea, ulcerations, cancer and emesis. Using a well-established ferret model of post-operative complications of emesis induced by morphine, Zangrado (CGO 110) was administered intraperitoneally (3 mg/kg) to ferrets 15 minutes prior to the administration of morphine-6-glucuronide (M6G), known to promote itching, retching and vomiting. The animals were monitored for sixty minutes.
As shown in FIG. 1 the subcutaneous injection of 0.05 mg/kg M6G caused a significant number of vomiting (2.2±0.4) and retching (10±1.2) incidences in the control group. In those animals treated with Zangrado (CGO 110), the number of these episodes was virtually abolished (vomiting 0.6±0.3; retching 2.2±0.7, P<0.05). Given the utility of this model to predict treatments for nausea and vomiting, Zangrado (CGO 110) contains active components and is effective in the treatment of emesis.

opioid-induced itch = test: Ferret model of opioid (morphine-6-glucuronide)-induced itch (licking)
Method: FIG. 2: FIG. 2. Prevention of opioid-induced itch by Zangrado. Itch, as measured by the number of licking episodes per hour, was induced by parenteral administration of the opioid narcotic, morphine-6-glucuronide (15 mg/kg) ip.
Zangrado (CGO 110) contains active components and is effective in the treatment of itch.

[1] = Body temperature and sedation at anti-emetic doses; conditions: CGO 110 3 mg/kg
Text: As such, Zangrado represents a significant improvement in the treatment of emesis and itch.

SMILES: Cc1c(C(=O)NN2CCCCC2)nn(-c2ccc(Cl)cc2Cl)c1-c1ccc(I)cc1 [AM251]
- effect on emesis in naïve animals (opioid-induced emesis): promotes emesis
- effect on licking in naïve animals (opioid-induced itch): promotes licking

SMILES: Cc1c(C(=O)c2cccc3ccccc23)c2cccc3c2n1[C@H](CN1CCOCC1)CO3 [WIN 55, 212-2]
- effect on body temperature [1]: produces a drop in body temperature
- sedation [1]: significant sedation
